The assay concerns the target HPK1 (Homo sapiens (Human), UniProt Q92918). The assay can be described thus: HPK1 Kinase Binding Assay. As to the method: A stock solution of 1 mM test compound was prepared in DMSO. The compound plate was prepared by 3-fold and 11-point serial dilutions. 0.1 μL of the compound in DMSO was transferred from the compound plate to the white 384 well polystyrene plates. The assay buffer contained 50 mM HEPES, pH 7.5, 0.01% Tween-20, 5 mM MgCl2, 0.01% BSA, and 5 mM DTT. 5 μl of 4 nM active HPK1 (SignalChem M23-11G) prepared in the buffer was added to the plate. The enzyme concentration given was based on the given stock concentration reported by the vender. 5 μl of 18 nM tracer 222 (ThermoFisher PV6121) and 4 nM LanthaScreen Eu-Anti GST antibody (ThermoFisher PV5595) were added. After one hour incubation at 25° C., the plates were read on a PHERAstar FS plate reader (BMG Labtech). Ki values were determined.

A value given as a limit tells only on which side of the number the result lay.

Chain of HPK1 (Q92918 1-346): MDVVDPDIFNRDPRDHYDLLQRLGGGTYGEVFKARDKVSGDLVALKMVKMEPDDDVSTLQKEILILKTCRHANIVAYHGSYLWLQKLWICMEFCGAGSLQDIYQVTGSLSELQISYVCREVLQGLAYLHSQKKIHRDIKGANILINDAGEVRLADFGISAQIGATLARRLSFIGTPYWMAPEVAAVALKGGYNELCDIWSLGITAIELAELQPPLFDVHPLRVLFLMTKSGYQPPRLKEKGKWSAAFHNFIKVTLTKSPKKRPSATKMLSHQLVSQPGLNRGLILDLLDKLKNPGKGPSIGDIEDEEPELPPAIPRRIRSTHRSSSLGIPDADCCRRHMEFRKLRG

Consider `CN1CCN(c2ccc(-c3n[nH]c4cnc(-c5c(F)cc(O)cc5F)cc34)cc2)CC1` [Example 48, 3,5-Difluoro-4-(3-(4-(4-methylpiperazin-1-yl)phenyl)-1H-pyrazolo[3,4-c]pyridin-5-yl)phenol], for which the inhibition constant (Ki) was ≤ 100 nM.

Take `CNCc1cccc(-c2cc3c(-c4cnn(C)c4)n[nH]c3cn2)c1C` [Example 86, N-Methyl-1-(2-methyl-3-(3-(1-methyl-1H-pyrazol-4-yl)-1H-pyrazolo[3,4-c]pyridin-5-yl)phenyl)methanamine]: the Ki is ≤ 100 nM.

For the molecule `CNCc1cc(F)c(-c2cc3c(NC(=O)c4cccc(N5CCN(C)CC5)c4)n[nH]c3cn2)c(F)c1` [Example 145, N-(5-(2,6-Difluoro-4-((methylamino)methyl)phenyl)-1H-pyrazolo[3,4-c]pyridin-3-yl)-3-(4-methylpiperazin-1-yl)benzamide], the inhibition constant (Ki) was ≤ 100 nM.

In the case of `COc1cccc(F)c1-c1cc2c(NC(=O)c3ccc(F)c(C)c3)n[nH]c2cn1` [Example 10, 4-Fluoro-N-(5-(2-fluoro-6-methoxyphenyl)-1H-pyrazolo[3,4-c]pyridin-3-yl)-3-methylbenzamide], the Ki is ≤ 100 nM.

In the case of `CN1CCN(c2ccc(-c3n[nH]c4cnc(-c5cc(F)cc(C6(CN)CC6)c5)cc34)cc2)CC1` [Example 42, 1-[1-(3-Fluoro-5-{3-[4-(4-methylpiperazin-1-yl)phenyl]-1H-pyrazolo[3,4-c]pyridin-5-yl}phenyl)cyclopropyl]methanamine], the Ki was ≤ 100 nM.

Turning to `COc1cc(NC(=O)CN2CC(C)(C)C2)cc(F)c1-c1cc2c(-c3cnn(C)c3)n[nH]c2cn1` [Example 75, 2-(3,3-Dimethylazetidin-1-yl)-N-(3-fluoro-5-methoxy-4-(3-(1-methyl-1H-pyrazol-4-yl)-1H-pyrazolo[3,4-c]pyridin-5-yl)phenyl)acetamide], the Ki is ≤ 100 nM.

As for `COc1cccc(F)c1-c1cc2c(NC(=O)c3cccc(F)c3)n[nH]c2cn1` [Example 6, 3-Fluoro-N-(5-(2-fluoro-6-methoxyphenyl)-1H-pyrazolo[3,4-c]pyridin-3-yl)benzamide], the Ki was ≤ 100 nM.

As to `Cc1cccc(F)c1-c1cc2c(NC(=O)c3ccc(N4CCN(C)CC4)cc3NCC(C)O)n[nH]c2cn1` (stereo not shown) [Example 158, N-(5-(2-Fluoro-6-methylphenyl)-1H-pyrazolo[3,4-c]pyridin-3-yl)-2-(2-hydroxypropylamino)-4-(4-methylpiperazin-1-yl)benzamide], the Ki is ≤ 100 nM.

In the case of `COc1cccc(F)c1-c1cc2c(NC(=O)c3cccc(N4CCOCC4)c3)n[nH]c2cn1` [Example 16, N-(5-(2-Fluoro-6-methoxyphenyl)-1H-pyrazolo[3,4-c]pyridin-3-yl)-3-morpholinobenzamide], the inhibitory constant (Ki) is ≤ 100 nM.

As to `Cc1cc(CNCc2cn(C)cn2)cc(F)c1-c1cc2c(-c3cnn(C)c3)n[nH]c2cn1` [Example 186, N-(3-Fluoro-5-methyl-4-(3-(1-methyl-1H-pyrazol-4-yl)-1H-pyrazolo[3,4-c]pyridin-5-yl)benzyl)-1-(1-methyl-1H-imidazol-4-yl)methanamine], the Ki is ≤ 100 nM.

Take `Cc1cc(NC(=O)CN(C)C)cc(F)c1-c1cc2c(-c3cnn(C)c3)n[nH]c2cn1` [Example 81, 2-(Dimethylamino)-N-(3-fluoro-5-methyl-4-(3-(1-methyl-1H-pyrazol-4-yl)-1H-pyrazolo[3,4-c]pyridin-5-yl)phenyl)acetamide]: the inhibition constant Ki is ≤ 100 nM.

As for `COc1cccc(F)c1-c1cc2c(NC(=O)c3ccc(N4CCN(C5CC5)C(=O)C4)cc3)n[nH]c2cn1` [Example 31, 4-(4-Cyclopropyl-3-oxopiperazin-1-yl)-N-(5-(2-fluoro-6-methoxyphenyl)-1H-pyrazolo[3,4-c]pyridin-3-yl)benzamide], the Ki is ≤ 100 nM.

In the case of `Cc1cc(C2COCCN2)cc(F)c1-c1cc2c(-c3cnn(C)c3)n[nH]c2cn1` (stereo not shown) [Example 234, 3-(3-Fluoro-5-methyl-4-(3-(1-methyl-1H-pyrazol-4-yl)-1H-pyrazolo[3,4-c]pyridin-5-yl)phenyl)morpholine], the inhibitory constant (Ki) is ≤ 100 nM.

Regarding `COc1cccc(F)c1-c1cc2c(NC(=O)c3cccc(N4CCN(C)CC4)c3)n[nH]c2cn1` [Example 18, N-(5-(2-Fluoro-6-methoxyphenyl)-1H-pyrazolo[3,4-c]pyridin-3-yl)-3-(4-methylpiperazin-1-yl)benzamide], the Ki was ≤ 100 nM.

As to `COc1cccc(F)c1-c1cc2c(NC(=O)c3cnn(C)c3)n[nH]c2cn1` [Example 14, N-(5-(2-Fluoro-6-methoxyphenyl)-1H-pyrazolo[3,4-c]pyridin-3-yl)-1-methyl-1H-pyrazole-4-carboxamide], the Ki is ≤ 100 nM.

With `COc1cccc(F)c1-c1cc2c(-n3cnc(C(=O)NC(C)C)c3)n[nH]c2cn1` [Example 104, 1-(5-(2-Fluoro-6-methoxyphenyl)-1H-pyrazolo[3,4-c]pyridin-3-yl)-N-isopropyl-1H-imidazole-4-carboxamide], the Ki is ≤ 100 nM.

With `Cc1c(CN2CC(C)(C)C2)ccc(F)c1-c1cc2c(-c3cnn(C)c3)n[nH]c2cn1` [Example 221, 5-(3-((3,3-Dimethylazetidin-1-yl)methyl)-6-fluoro-2-methylphenyl)-3-(1-methyl-1H-pyrazol-4-yl)-1H-pyrazolo[3,4-c]pyridine], the inhibition constant (Ki) was ≤ 100 nM.

Consider `Cn1cc(-c2n[nH]c3cnc(-c4c(F)cc(OC5CCOCC5)cc4F)cc23)cn1` [Example 107, 5-(2,6-Difluoro-4-(tetrahydro-2H-pyran-4-yloxy)phenyl)-3-(1-methyl-1H-pyrazol-4-yl)-1H-pyrazolo[3,4-c]pyridine], for which the Ki was ≤ 100 nM.

On to `Cc1cc(NC(=O)CN2C[C@H]3CC[C@@H]2C3)ccc1-c1cc2c(-c3cnn(C)c3)n[nH]c2cn1` [Example 79, 2-((1R,4S)-2-Azabicyclo[2.2.1]heptan-2-yl)-N-(3-methyl-4-(3-(1-methyl-1H-pyrazol-4-yl)-1H-pyrazolo[3,4-c]pyridin-5-yl)phenyl)acetamide], for which the Ki was ≤ 100 nM.

For `COc1cccc(F)c1-c1cc2c(NC(=O)c3cccc(N4CCN(S(C)(=O)=O)CC4)c3)n[nH]c2cn1` [Example 22, N-(5-(2-Fluoro-6-methoxyphenyl)-1H-pyrazolo[3,4-c]pyridin-3-yl)-3-(4-(methylsulfonyl)piperazin-1-yl)benzamide], the inhibition constant Ki is ≤ 100 nM.

As to `COc1cccc(F)c1-c1cc2c(-c3cnc(C)s3)n[nH]c2cn1` [Example 36, 5-(5-(2-Fluoro-6-methoxyphenyl)-1H-pyrazolo[3,4-c]pyridin-3-yl)-2-methylthiazole], the inhibition constant Ki is ≤ 100 nM.

`COc1cccc(F)c1-c1cc2c(NC(=O)c3ccc(N4CCN(S(C)(=O)=O)CC4)cc3)n[nH]c2cn1` [Example 32, N-(5-(2-Fluoro-6-methoxyphenyl)-1H-pyrazolo[3,4-c]pyridin-3-yl)-4-(4-(methylsulfonyl)piperazin-1-yl)benzamide]: the Ki was ≤ 100 nM.

With `COc1c(-c2cc3c(-c4cnn(C)c4)n[nH]c3cn2)c(F)cc2c1C(N)CC2` (stereo not shown) [Example 207, 5-Fluoro-7-methoxy-6-(3-(1-methyl-1H-pyrazol-4-yl)-1H-pyrazolo[3,4-c]pyridin-5-yl)-2,3-dihydro-1H-inden-1-amine], the inhibitory constant (Ki) was ≤ 100 nM.

Take `CNC1CCc2cc(F)c(-c3cc4c(-c5ccc(N6CCN(C)CC6)cc5)n[nH]c4cn3)c(F)c2C1` (stereo not shown) [Example 199, 6,8-Difluoro-N-methyl-7-(3-(4-(4-methylpiperazin-1-yl)phenyl)-1H-pyrazolo[3,4-c]pyridin-5-yl)-1,2,3,4-tetrahydronaphthalen-2-amine]: the Ki was ≤ 100 nM.

For the molecule `Cc1cc(C2CCCCN2)cc(F)c1-c1cc2c(-c3cnn(C)c3)n[nH]c2cn1` (single isomer, unassigned) [Example 174, 5-(2-Fluoro-6-methyl-4-(piperidin-2-yl)phenyl)-3-(1-methyl-1H-pyrazol-4-yl)-1H-pyrazolo[3,4-c]pyridine], the inhibition constant (Ki) is ≤ 100 nM.

Consider `CN(C)C(=O)Oc1cc(F)c(-c2cc3c(-c4cnn(C)c4)n[nH]c3cn2)c(F)c1` [Example 109, 3,5-Difluoro-4-(3-(1-methyl-1H-pyrazol-4-yl)-1H-pyrazolo[3,4-c]pyridin-5-yl)phenyl dimethylcarbamate], for which the Ki is ≤ 100 nM.

As to `CC(C)N1CC(NCCc2cc(F)c(-c3cc4c(-c5cnn(C)c5)n[nH]c4cn3)c(F)c2)C1` [Example 99, N-(3,5-Difluoro-4-(3-(1-methyl-1H-pyrazol-4-yl)-1H-pyrazolo[3,4-c]pyridin-5-yl)phenethyl)-1-isopropylazetidin-3-amine], the Ki is ≤ 100 nM.

With `COc1cccc(F)c1-c1cc2c(/C=C/c3ccc(Br)cc3)n[nH]c2cn1` [Example 116, 3-(4-Bromostyryl)-5-(2-fluoro-6-methoxyphenyl)-1H-pyrazolo[3,4-c]pyridine], the Ki is ≤ 100 nM.

Turning to `CN1CCN(c2ccc(-c3n[nH]c4cnc(-c5c(F)cccc5Cl)cc34)cc2)CC1` [Example 47, 5-(2-Chloro-6-fluorophenyl)-3-(4-(4-methylpiperazin-1-yl)phenyl)-1H-pyrazolo[3,4-c]pyridine], the Ki is ≤ 100 nM.

For `CN1CCN(c2ccc(-c3n[nH]c4cnc(-c5c(Cl)cccc5C(F)(F)F)cc34)cc2)CC1` [Example 50, 5-(2-Chloro-6-(trifluoromethyl)phenyl)-3-(4-(4-methylpiperazin-1-yl)phenyl)-1H-pyrazolo[3,4-c]pyridine], the Ki is ≤ 100 nM.

Consider `Cn1cc(-c2n[nH]c3cnc(-c4c(F)cc(C5CCCN5)cc4C(F)(F)F)cc23)cn1` (single isomer, unassigned) [Example 227, 5-(2-Fluoro-4-(pyrrolidin-2-yl)-6-(trifluoromethyl)phenyl)-3-(1-methyl-1H-pyrazol-4-yl)-1H-pyrazolo[3,4-c]pyridine], for which the Ki is ≤ 100 nM.

What is called Ki is the equilibrium dissociation constant of an inhibitor or competing ligand from its target. A low value points to a stronger hold on the target.
